# Results: PMC5844530, “Fosmetpantotenate (RE-024), a phosphopantothenate replacement therapy for pantothenate kinase-associated neurodegeneration: Mechanism of action and efficacy in nonclinical models” (PLoS ONE, 2018)
# Several values for one entry are separate records, joined by “and”; a condition that tells them apart may be missing. Equal values may be shown once. Entries after “also recorded” stand apart in the source; their conditions may differ.
# Columns and labels:
# [1] = Metabolic stability in human liver microsomes; assay type: in vitro ADME; conditions: pooled liver microsomes
# Protocol: Metabolic stability in blood and liver microsomes: Fosmetpantotenate or its individual diastereomers (5 μM, n = 2, 37°C) were incubated in mouse, rat, cynomolgus monkey, and human whole blood. Samples (50 μL) were taken at 0, 5, 15, 30, and 60 min. Incubations of fosmetpantotenate or its individual diastereomers (1 μM, n = 2, 37°C) in pooled liver microsomes (0.25 mg protein/mL in 0.1 M phosphate buffer pH 7.4) were initiated with the addition of nicotinamide adenine dinucleotide phosphate (NADPH; 1 mM). Aliquots (100 μL) were obtained at 0, 5, 10, 20, and 40 min and added to 150 μL of 0.1% formic acid in acetonitrile-containing carbamazepine (0.5 μM) as an analytical internal standard, centrifuged, and the supernatants analyzed by LC-MS/MS.
# Bioanalysis for determinations of analyte stability: Samples were analyzed using a benchtop tandem quadrupole detector (TQD) mass spectrometer (Waters Ltd, Centennial Park, Hertfordshire). […] Suitable retention and peak shape with separation of the 2 diastereomers were obtained. The chromatography column was a Phenomenex-Kinetex XB C18 (2.10 x 50 mm; 2.6 μm), with a 0.7 mL/min flow rate and a 2 μL injection volume. […]
# The percent of compound remaining was determined from the MRM area response in each sample relative to that in the T = 0 samples (normalized for internal standard). […]
# [2] = system: shRNA PanK2 knockdown human neuroblastoma IMR32 cells; assay: Intracellular CoA levels in shRNA PanK2 knockdown human neuroblastoma cells; assay type: cell-based; conditions: for Area Ratio, biological replicates 1-3 / Area Ratio, Mean / CoASH Fold Increase, Mean: Figure 3 data; for Area Ratio, biological replicates 1-3: PANK2-/- cells; for CoASH Fold Increase, Mean: over vehicle (1.00); for CoASH Area ratio / Total CoA Area ratio: Figure 4 data, 1 µM fosmetpantotenate, each line a biological replicate (well), analyzed 3 times
# Protocol: The in vitro model to evaluate the efficacy of fosmetpantotenate and analogs was developed using a human neuroblastoma IMR32 cell line (ATCC) with stable PanK2 knockdown through lentiviral-delivered shRNA [23]. […] Cells were cultured in minimal essential media (MEM; Invitrogen), supplemented with 10% fetal bovine serum, 2 mM glutamine, 1% penicillin-streptomycin, 1 mM sodium pyruvate, 1 mM non-essential amino acids, 1.5 g/L sodium bicarbonate, and 1 μg/mL puromycin. […] At the end of the time period, cells were harvested, counted, collected in a 15 mL falcon tube, and centrifuged at 200xg for 5 min at 4°C.
# For all incubations, the supernatant was removed and the cell pellet was resuspended in 10 mL of ice-cold phosphate buffered saline. […] The supernatant (100 μL) was placed in a separate tube and dried under nitrogen at 20°C in the dark. Samples were reconstituted with ammonium acetate buffer (pH 5.1) containing dextrorphan (50 ng/mL) as the internal standard, stirred for 2 min, sonicated in an ultrasonic bath for 1 min, and stirred again for 1 min before liquid chromatography-tandem mass spectrometry (LC-MS/MS) analysis for determination of intracellular CoA levels. Intracellular CoA concentration was calculated considering an intracellular volume of 10^6 cells equal to 2 μL. The measurement of the intracellular volume of cultured cells was performed following the distribution of [^14C]urea and [^14C]mannitol with time.
# Coenzyme A determinations: An Agilent 1100 high-performance liquid chromatography (HPLC) system with a CTC PAL autosampler was used. Samples were chromatographed on a Phenomenex Luna C18 column (50 x 2.0 mm; 5 μm), with a 0.2 mL/min flow rate and a […] injection volume in a 5 μL injection loop. The mobile phases were (A) 10 mM ammonium acetate in water and (B) acetonitrile:2-propanol (9:1; v:v). […] A Sciex API 4000 QTrap mass spectrometer, connected to the HPLC system in tandem, with an electrospray ionization source operating in the positive scanning mode, was used for multiple reaction monitoring (MRM). […] The statistical significance of the treatment was determined using a t-test.
smiles,measurement,setting,value
COC(=O)CCNC(=O)[C@H](O)C(C)(C)COP(=O)(N[C@@H](C)C(=O)OC)Oc1ccccc1 (mixture of isomers) [Fosmetpantotenate],half-life at 1 μM,"[1]; pH 7.4, 1 μM, NADPH",21 min
same,microsomal CLint at 1 μM,"[1]; pH 7.4, read-out: intrinsic clearance",134 µL/min/mg
same,change in the level of free CoA,[2]; 1 μM TID for 5 days,little change; also recorded: little effect
same,"Area Ratio, biological replicates 1-3",[2]; compound conc 12.5 µM,0.109 and 0.098 and 0.112
same,"Area Ratio, biological replicates 1-3",[2]; compound conc 25 µM,0.141 and 0.129 and 0.135
same,"Area Ratio, biological replicates 1-3",[2]; compound conc 50 µM,0.159 and 0.189 and 0.167
same,"Area Ratio, biological replicates 1-3",[2]; compound conc 100 µM,0.157 and 0.186 and 0.139
same,"Area Ratio, biological replicates 1-3",[2]; compound conc 200 µM,0.243 and 0.294 and 0.241
same,"Area Ratio, Mean",[2]; concentration 12.5 µM,0.081
same,"Area Ratio, Mean",[2]; concentration 25 µM,0.111
same,"Area Ratio, Mean",[2]; concentration 50 µM,0.141
same,"Area Ratio, Mean",[2]; concentration 100 µM,0.127
same,"Area Ratio, Mean",[2]; concentration 200 µM,0.216
same,"CoASH Fold Increase, Mean",[2]; concentration 25 µM,1.25
same,"CoASH Fold Increase, Mean",[2]; concentration 50 µM,2.00
same,"CoASH Fold Increase, Mean",[2]; concentration 100 µM,2.27
same,"CoASH Fold Increase, Mean",[2]; concentration 200 µM,2.41
same,CoASH Area ratio,[2]; Day 1,0.0013 (2×) and 0.0014 and 0.0011 and 0.0012 (2×) and 0.0018 and 0.0019 (2×)
same,Total CoA Area ratio,[2]; Day 1,0.0238 and 0.0248 and 0.0256 and 0.0250 and 0.0258 and 0.0229 and 0.0233 and 0.0235
same,CoASH Area ratio,[2]; Day 3,0.0035 and 0.0037 (2×) and 0.0024 and 0.0025 and 0.0026 and 0.0022 and 0.0023 (2×)
same,Total CoA Area ratio,[2]; Day 3,0.0360 and 0.0361 and 0.0365 and 0.0359 and 0.0368 and 0.0185 and 0.0353 and 0.0367
same,CoASH Area ratio,[2]; Day 5,0.0029 and 0.0031 (2×) and 0.0024 (2×) and 0.0025 and 0.0019 and 0.0020 (2×)
same,Total CoA Area ratio,[2]; Day 5,0.0314 and 0.0330 (2×) and 0.0343 and 0.0336 and 0.0342
